Source: patent publication US9738634B2, “Heterocyclic amide compound and herbicide” (SYNGENTA PARTICIPATIONS AG, priority 2013, dated 2017)

Columns and labels:
Assay type in all cases: in vivo
Settings in all cases: treatment dosage 320 g/ha
barnyard grass [1] = assay: Test Example 1: weedkilling efficacy, preemergent weed treatment in the submerged state; A: barnyard grass
Procedure, shortened: (§1)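 Submerged pre-emergence treatment, water-surface application of compound emulsion at g/ha dosages; 4 cm flooded alluvial soil, weeds sown and 2.5-leaf rice transplanted same day. Rated after 3 weeks, greenhouse.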

bulrush [2] = assay: Test Example 1: weedkilling efficacy, preemergent weed treatment in the submerged state; B: bulrush
Procedure, shortened: as §1

oval-leafed pondweed [3] = assay: Test Example 1: weedkilling efficacy, preemergent weed treatment in the submerged state; C: oval-leafed pondweed
Procedure, shortened: as §1

transplanted rice = assay: Test Example 1: preemergent weed treatment in the submerged state, effect on crop; a: transplanted rice
Procedure, shortened: as §1

barnyard grass [4] = assay: Test Example 2: weedkilling efficacy, growth period weed treatment in the submerged state; A: barnyard grass
Procedure, shortened: (§2)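 Seedlings at 1-2 leaves in 4 cm-deep submerged alluvial soil received emulsion formulations on the water surface, dosed per hectare; effects were judged 3 weeks on.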

bulrush [5] = assay: Test Example 2: weedkilling efficacy, growth period weed treatment in the submerged state; B: bulrush
Procedure, shortened: as §2

oval-leafed pondweed [6] = assay: Test Example 2: weedkilling efficacy, growth period weed treatment in the submerged state; C: oval-leafed pondweed
Procedure, shortened: as §2

crabgrass [7] = assay: Test Example 3: weedkilling efficacy through soil treatment; D: crabgrass
Procedure, shortened: (§3)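 Crop and weed responses were judged three weeks after a uniform surface spray of the water-diluted emulsion at the given g/ha rate. Seeds sat beneath about 1.5 cm of sterilized diluvial soil, and boxes stood in a greenhouse at 25 to 30° C.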

green foxtail [8] = assay: Test Example 3: weedkilling efficacy through soil treatment; E: green foxtail
Procedure, shortened: as §3

barnyard grass [9] = assay: Test Example 3: weedkilling efficacy through soil treatment; F: barnyard grass
Procedure, shortened: as §3

wild oat [10] = assay: Test Example 3: weedkilling efficacy through soil treatment; G: wild oat
Procedure, shortened: as §3

black-grass [11] = assay: Test Example 3: weedkilling efficacy through soil treatment; H: black-grass
Procedure, shortened: as §3

Italian ryegrass [12] = assay: Test Example 3: weedkilling efficacy through soil treatment; I: Italian ryegrass
Procedure, shortened: as §3

common wind-grass [13] = assay: Test Example 3: weedkilling efficacy through soil treatment; J: common wind-grass
Procedure, shortened: as §3

Indian mallow [14] = assay: Test Example 3: weedkilling efficacy through soil treatment; K: Indian mallow
Procedure, shortened: as §3

redroot pigweed [15] = assay: Test Example 3: weedkilling efficacy through soil treatment; L: redroot pigweed
Procedure, shortened: as §3

fig-leafed goosefoot [16] = assay: Test Example 3: weedkilling efficacy through soil treatment; M: fig-leafed goosefoot
Procedure, shortened: as §3

chickweed [17] = assay: Test Example 3: weedkilling efficacy through soil treatment; N: chickweed
Procedure, shortened: as §3

directly sown rice [18] = assay: Test Example 3: soil treatment, effect on crop; b: directly sown rice
Procedure, shortened: as §3

corn [19] = assay: Test Example 3: soil treatment, effect on crop; c: corn
Procedure, shortened: as §3

soybean [20] = assay: Test Example 3: soil treatment, effect on crop; d: soybean
Procedure, shortened: as §3

wheat [21] = assay: Test Example 3: soil treatment, effect on crop; e: wheat
Procedure, shortened: as §3

rapeseed [22] = assay: Test Example 3: soil treatment, effect on crop; g: rapeseed
Procedure, shortened: as §3

crabgrass [23] = assay: Test Example 4: weedkilling efficacy by foliar treatment; D: crabgrass
Procedure, shortened: (§4)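 Seeds are spot-sown into sterilized diluvial soil and covered with about 1.5 cm of soil. After 14 days' greenhouse growth at 25 to 30° C, plants are sprayed on stems and leaves with diluted emulsion at the stated g/ha rate, then scored at 3 weeks.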

green foxtail [24] = assay: Test Example 4: weedkilling efficacy by foliar treatment; E: green foxtail
Procedure, shortened: as §4

barnyard grass [25] = assay: Test Example 4: weedkilling efficacy by foliar treatment; F: barnyard grass
Method: (§5) Testing of Weedkilling Efficacy by Foliar Treatment
(§6) Sterilized diluvial soil was introduced into 21 cm long, 13 cm wide, 7 cm deep plastic boxes, and seeds of crabgrass, green foxtail, barnyard grass, wild oat, black-grass, Italian ryegrass, common wind-grass, Indian mallow, redroot pigweed, fig-leafed goosefoot, chickweed, catchweed, birds-eye speedwell, corn, soybean, rice, wheat, beet and rapeseed were each spot-sown, and covered with about 1.5 cm of soil, then the plants were grown in a greenhouse at 25 to 30° C.
(§7) After they had grown for 14 days, emulsions of compounds of the present invention prepared according to compounding example 2 were diluted with water to give the specified dosages, and applied uniformly onto the stem and leaf parts with a small sprayer. 3 weeks after the pesticide treatment the effect on each type of plant was investigated on the basis of the assessment criteria of test example 1.
(§8) A: barnyard grass, B: bulrush, C: oval-leafed pondweed, D: crabgrass, E: green foxtail, F: barnyard grass, G: wild oat, H: black-grass, I: Italian ryegrass, J: common wind-grass, K: Indian mallow, L: redroot pigweed, M: fig-leafed goosefoot, N: chickweed, O: catchweed, p: birds-eye speedwell, a: transplanted rice, b: directly sown rice, c: corn, d: soybean, e: wheat, f: beet, g: rapeseed
(§9) Further, pesticide dosage (g/ha) indicates the concentration regulated such that treatment was with only the stated number of grams (g), when calculated per hectare (ha).

wild oat [26] = assay: Test Example 4: weedkilling efficacy by foliar treatment; G: wild oat
Procedure, shortened: as §4

black-grass [27] = assay: Test Example 4: weedkilling efficacy by foliar treatment; H: black-grass
Procedure, shortened: as §4

Italian ryegrass [28] = assay: Test Example 4: weedkilling efficacy by foliar treatment; I: Italian ryegrass
Procedure, shortened: as §4

common wind-grass [29] = assay: Test Example 4: weedkilling efficacy by foliar treatment; J: common wind-grass
Method: as §5, §6, §7, §8, §9

Indian mallow [30] = assay: Test Example 4: weedkilling efficacy by foliar treatment; K: Indian mallow
Procedure, shortened: as §4

redroot pigweed [31] = assay: Test Example 4: weedkilling efficacy by foliar treatment; L: redroot pigweed
Procedure, shortened: as §4

fig-leafed goosefoot [32] = assay: Test Example 4: weedkilling efficacy by foliar treatment; M: fig-leafed goosefoot
Procedure, shortened: as §4

chickweed [33] = assay: Test Example 4: weedkilling efficacy by foliar treatment; N: chickweed
Procedure, shortened: as §4

catchweed = assay: Test Example 4: weedkilling efficacy by foliar treatment; O: catchweed
Procedure, shortened: as §4

directly sown rice [34] = assay: Test Example 4: foliar treatment, effect on crop; b: directly sown rice
Procedure, shortened: as §4

corn [35] = assay: Test Example 4: foliar treatment, effect on crop; c: corn
Procedure, shortened: as §4

soybean [36] = assay: Test Example 4: foliar treatment, effect on crop; d: soybean
Procedure, shortened: as §4

wheat [37] = assay: Test Example 4: foliar treatment, effect on crop; e: wheat
Procedure, shortened: as §4

beet = assay: Test Example 4: foliar treatment, effect on crop; f: beet
Procedure, shortened: as §4

rapeseed [38] = assay: Test Example 4: foliar treatment, effect on crop; g: rapeseed
Method: as §5, §6, §7, §8, §9

For `CC1=C(c2cccnc2F)C(=O)N(C(C)(C)C(=O)Nc2cc(C(F)(F)F)cc(Cl)n2)CO1` [B-2-16], the “A (barnyard grass) weedkilling efficacy grade” value (barnyard grass [1]) was 5 (weed kill ratio 90% or more, (practically complete withering)), the “B (bulrush) weedkilling efficacy grade” value (bulrush [2]) was 5 (weed kill ratio 90% or more, (practically complete withering)) and the “C (oval-leafed pondweed) weedkilling efficacy grade” value (oval-leafed pondweed [3]) was 5 (weed kill ratio 90% or more, (practically complete withering)). For the same compound, the “a (transplanted rice) effect on crop grade” value (transplanted rice) was 4 (weed kill ratio 70% or more, less than 90%), the “A (barnyard grass) weedkilling efficacy grade” value (barnyard grass [4]) was 5 (weed kill ratio 90% or more, (practically complete withering)) and the “B (bulrush) weedkilling efficacy grade” value (bulrush [5]) was 5 (weed kill ratio 90% or more, (practically complete withering)). The “C (oval-leafed pondweed) weedkilling efficacy grade” value (oval-leafed pondweed [6]) was 5 (weed kill ratio 90% or more, (practically complete withering)), the “D (crabgrass) weedkilling efficacy grade” value (crabgrass [7]) was 5 (weed kill ratio 90% or more, (practically complete withering)) and the “E (green foxtail) weedkilling efficacy grade” value (green foxtail [8]) was 5 (weed kill ratio 90% or more, (practically complete withering)). For the same compound, the “F (barnyard grass) weedkilling efficacy grade” value (barnyard grass [9]) was 5 (weed kill ratio 90% or more, (practically complete withering)), the “G (wild oat) weedkilling efficacy grade” value (wild oat [10]) was 5 (weed kill ratio 90% or more, (practically complete withering)) and the “H (black-grass) weedkilling efficacy grade” value (black-grass [11]) was 5 (weed kill ratio 90% or more, (practically complete withering)). For the same compound, the “I (Italian ryegrass) weedkilling efficacy grade” value (Italian ryegrass [12]) was 5 (weed kill ratio 90% or more, (practically complete withering)), the “J (common wind-grass) weedkilling efficacy grade” value (common wind-grass [13]) was 5 (weed kill ratio 90% or more, (practically complete withering)) and the “K (Indian mallow) weedkilling efficacy grade” value (Indian mallow [14]) was 2 (weed kill ratio 20% or more, less than 40%). The “L (redroot pigweed) weedkilling efficacy grade” value (redroot pigweed [15]) was 0 (weed kill ratio 5% or less (practically no effect)), the “M (fig-leafed goosefoot) weedkilling efficacy grade” value (fig-leafed goosefoot [16]) was 4 (weed kill ratio 70% or more, less than 90%) and the “N (chickweed) weedkilling efficacy grade” value (chickweed [17]) was 4 (weed kill ratio 70% or more, less than 90%). The “b (directly sown rice) effect on crop grade” value (directly sown rice [18]) was 5 (weed kill ratio 90% or more, (practically complete withering)), the “c (corn) effect on crop grade” value (corn [19]) was 1 (weed kill ratio 5% or more, less than 20%) and the “d (soybean) effect on crop grade” value (soybean [20]) was 1 (weed kill ratio 5% or more, less than 20%). The “e (wheat) effect on crop grade” value (wheat [21]) was 1 (weed kill ratio 5% or more, less than 20%), the “g (rapeseed) effect on crop grade” value (rapeseed [22]) was 3 (weed kill ratio 40% or more, less than 70%) and the “D (crabgrass) weedkilling efficacy grade” value (crabgrass [23]) was 5 (weed kill ratio 90% or more, (practically complete withering)). For the same compound, the “E (green foxtail) weedkilling efficacy grade” value (green foxtail [24]) was 5 (weed kill ratio 90% or more, (practically complete withering)), the “F (barnyard grass) weedkilling efficacy grade” value (barnyard grass [25]) was 5 (weed kill ratio 90% or more, (practically complete withering)) and the “G (wild oat) weedkilling efficacy grade” value (wild oat [26]) was 5 (weed kill ratio 90% or more, (practically complete withering)). For the same compound, the “H (black-grass) weedkilling efficacy grade” value (black-grass [27]) was 5 (weed kill ratio 90% or more, (practically complete withering)), the “I (Italian ryegrass) weedkilling efficacy grade” value (Italian ryegrass [28]) was 5 (weed kill ratio 90% or more, (practically complete withering)) and the “J (common wind-grass) weedkilling efficacy grade” value (common wind-grass [29]) was 5 (weed kill ratio 90% or more, (practically complete withering)). For the same compound, the “K (Indian mallow) weedkilling efficacy grade” value (Indian mallow [30]) was 5 (weed kill ratio 90% or more, (practically complete withering)), the “L (redroot pigweed) weedkilling efficacy grade” value (redroot pigweed [31]) was 4 (weed kill ratio 70% or more, less than 90%) and the “M (fig-leafed goosefoot) weedkilling efficacy grade” value (fig-leafed goosefoot [32]) was 5 (weed kill ratio 90% or more, (practically complete withering)). The “N (chickweed) weedkilling efficacy grade” value (chickweed [33]) was 4 (weed kill ratio 70% or more, less than 90%), the “O (catchweed) weedkilling efficacy grade” value (catchweed) was 4 (weed kill ratio 70% or more, less than 90%) and the “b (directly sown rice) effect on crop grade” value (directly sown rice [34]) was 5 (weed kill ratio 90% or more, (practically complete withering)). The “c (corn) effect on crop grade” value (corn [35]) was 4 (weed kill ratio 70% or more, less than 90%), the “d (soybean) effect on crop grade” value (soybean [36]) was 4 (weed kill ratio 70% or more, less than 90%) and the “e (wheat) effect on crop grade” value (wheat [37]) was 3 (weed kill ratio 40% or more, less than 70%). For the same compound, the “f (beet) effect on crop grade” value (beet) was 4 (weed kill ratio 70% or more, less than 90%) and the “g (rapeseed) effect on crop grade” value (rapeseed [38]) was 4 (weed kill ratio 70% or more, less than 90%).
